Experimental data: patent US9572811B2, “Treatment of dry eye” (PRINCIPIA BIOPHARMA INC., priority 2012, dated 2017)
pIC50: −log10 of the molar value.

molecular target: human recombinant Btk (Homo sapiens (Human), UniProt Q06187); test: Btk enzymatic activity assay (Caliper-based kinase assay); format: biochemical; settings: human recombinant Btk 2 nM, ATP 40 μM, peptide substrate 1 μM, room temperature 3 h; read-out: IC50 (μm)
Sequence (Q06187 whole entry): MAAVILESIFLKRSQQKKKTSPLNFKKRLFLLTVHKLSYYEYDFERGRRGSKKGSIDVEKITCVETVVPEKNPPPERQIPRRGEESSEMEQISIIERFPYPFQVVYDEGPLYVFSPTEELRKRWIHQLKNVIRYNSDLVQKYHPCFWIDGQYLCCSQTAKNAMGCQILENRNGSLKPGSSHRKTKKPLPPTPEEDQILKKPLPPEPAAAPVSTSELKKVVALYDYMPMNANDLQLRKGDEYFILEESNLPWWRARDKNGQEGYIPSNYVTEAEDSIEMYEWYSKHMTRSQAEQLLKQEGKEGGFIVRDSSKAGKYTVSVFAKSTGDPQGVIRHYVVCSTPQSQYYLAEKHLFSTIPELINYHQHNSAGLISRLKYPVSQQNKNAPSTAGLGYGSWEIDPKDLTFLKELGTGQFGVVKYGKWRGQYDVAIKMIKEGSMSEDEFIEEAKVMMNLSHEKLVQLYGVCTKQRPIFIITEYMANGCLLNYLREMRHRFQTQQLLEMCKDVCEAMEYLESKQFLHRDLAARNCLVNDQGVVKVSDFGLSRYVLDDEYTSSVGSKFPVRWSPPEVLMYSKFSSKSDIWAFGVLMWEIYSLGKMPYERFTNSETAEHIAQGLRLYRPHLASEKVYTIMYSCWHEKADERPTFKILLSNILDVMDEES
Protocol: A Caliper-based kinase assay (Caliper Life Sciences, Hopkinton, Mass.) was used to measure inhibition of Btk kinase activity of a compound of Formula (I). […] The reaction was then terminated with EDTA, final concentration 20 mM and the phosphorylated reaction product was quantified on a Caliper Desktop Profiler (Caliper LabChip 3000). […] This value is presented as the IC50.

| SMILES | pIC50 |
| --- | --- |
| N#CC(=CC1CC1)C(=O)N1CCC(n2nc(-c3ccc(Oc4ccccc4)cc3)c3c(N)ncnc32)CC1 [Cpd 3, 2-(4-(4-amino-3-(4-phenoxyphenyl)-1H-pyrazolo[3,4-d]pyrimidin-1-yl)piperidine-1-carbonyl)-3-cyclopropylacrylonitrile] | 6.76 |
| COc1cc(-c2nn(CC3CCCN3C(=O)C(C#N)=CC3CC3)c3ncnc(N)c23)ccc1Oc1ccc(Cl)c(Cl)c1 (stereo not shown) [Cpd 5] | 9.00 |
| N#CC(=CC1CC1)C(=O)NC1CCC(n2nc(-c3ccc(Oc4ccccc4)cc3)c3c(N)ncnc32)CC1 (stereo not shown) [Cpd 11, N-((1s,4s)-4-(4-amino-3-(4-phenoxyphenyl)-1H-pyrazolo[3,4-d]pyrimidin-1-yl)cyclohexyl)-2-cyano-3-cyclopropylacrylamide] | 7.85 |
| [C-]#[N+]C(=CC1CC1)C(=O)N1CCC[C@@H](n2nc(-c3ccc(Oc4ccccc4)cc3F)c3c(N)ncnc32)C1 [Cpd 22B] | 8.59 |
| N#CC(=CC1CC1)C(=O)N1CCC[C@@H]1Cn1nc(-c2ccc(Oc3c(F)cccc3F)cc2F)c2c(N)ncnc21 [Cpd 44A, (R)-2-(2-((4-amino-3-(2-fluoro-4-(2,6-difluorophenoxy)phenyl)-1H-pyrazolo[3,4-d]pyrimidin-1-yl)methyl)pyrrolidine-1-carbonyl)-3-cyclopropylacrylonitrile] | 8.30 |
| N#CC(=CC1CC1)C(=O)N1CCC[C@H]1Cn1nc(-c2ccc(Oc3c(F)cccc3F)cc2F)c2c(N)ncnc21 [Cpd 44B, (S)-2-(2-((4-amino-3-(2-fluoro-4-(2,6-difluorophenoxy)phenyl)-1H-pyrazolo[3,4-d]pyrimidin-1-yl)methyl)pyrrolidine-1-carbonyl)-3-cyclopropylacrylonitrile] | 8.52 |
| CC(C)(C=C(C#N)C(=O)N1CCC[C@@H]1Cn1nc(-c2ccc(Oc3ccccc3)cc2F)c2c(N)ncnc21)N1CCOCC1 [Cpd 95A, (R)-2-(2-((4-amino-3-(2-fluoro-4-phenoxyphenyl)-1H-pyrazolo[3,4-d]pyrimidin-1-yl)methyl)pyrrolidine-1-carbonyl)-4-methyl-4-morpholinopent-2-enenitrile] | 7.58 |
| CC(C)(C=C(C#N)C(=O)N1CCC[C@H]1Cn1nc(-c2ccc(Oc3ccccc3)cc2F)c2c(N)ncnc21)N1CCOCC1 [Cpd 95B, (S)-2-(2-((4-amino-3-(2-fluoro-4-phenoxyphenyl)-1H-pyrazolo[3,4-d]pyrimidin-1-yl)methyl)pyrrolidine-1-carbonyl)-4-methyl-4-morpholinopent-2-enenitrile] | 8.49 |

More lines, now with the values ahead:

| pIC50 | SMILES |
| --- | --- |
| 7.92 | CC(C)(C=C(C#N)C(=O)N1CCC[C@H]1Cn1nc(-c2ccc(Oc3ccccc3)cc2F)c2c(N)ncnc21)NC1CC1 [Cpd 87B, (S)-2-(2-((4-amino-3-(2-fluoro-4-phenoxyphenyl)-1H-pyrazolo[3,4-d]pyrimidin-1-yl)methyl)pyrrolidine-1-carbonyl)-4-(cyclopropylamino)-4-methylpent-2-enenitrile] |
| 7.54 | COCCNC(C)(C)C=C(C#N)C(=O)N1CCC[C@H]1Cn1nc(-c2ccc(Oc3ccccc3)cc2F)c2c(N)ncnc21 [Cpd 88B, (S)-2-(2-((4-amino-3-(2-fluoro-4-phenoxyphenyl)-1H-pyrazolo[3,4-d]pyrimidin-1-yl)methyl)pyrrolidine-1-carbonyl)-4-((2-methoxyethyl)amino)-4-methylpent-2-enenitrile] |
| 5.51 | CCOC(C)(C)C=C(C#N)C(=O)N1CCC[C@@H]1Cn1nc(-c2ccc(Oc3ccccc3)cc2F)c2c(N)ncnc21 [Cpd 89A, (R)-2-(2-((4-amino-3-(2-fluoro-4-phenoxyphenyl)-1H-pyrazolo[3,4-d]pyrimidin-1-yl)methyl)pyrrolidine-1-carbonyl)-4-ethoxy-4-methylpent-2-enenitrile] |
| 5.18 | CCOC(C)(C)C=C(C#N)C(=O)N1CCC[C@H]1Cn1nc(-c2ccc(Oc3ccccc3)cc2F)c2c(N)ncnc21 [Cpd 89B, (S)-2-(2-((4-amino-3-(2-fluoro-4-phenoxyphenyl)-1H-pyrazolo[3,4-d]pyrimidin-1-yl)methyl)pyrrolidine-1-carbonyl)-4-ethoxy-4-methylpent-2-enenitrile] |
| 8.89 | CNC(C)(C)C=C(C#N)C(=O)N1CCC[C@@H]1Cn1nc(-c2ccc(Oc3cccc(F)c3F)cc2F)c2c(N)ncnc21 [Cpd 105A, (R)-2-(2-((4-amino-3-(4-(2,3-difluorophenoxy)-2-fluorophenyl)-1H-pyrazolo[3,4-d]pyrimidin-1-yl)methyl)pyrrolidine-1-carbonyl)-4-methyl-4-(methylamino)pent-2-enenitrile] |
| 7.59 | CNC(C)(C)C=C(C#N)C(=O)N1CCC[C@H]1Cn1nc(-c2ccc(Oc3cccc(F)c3F)cc2F)c2c(N)ncnc21 [Cpd 105B, (S)-2-(2-((4-amino-3-(4-(2,3-difluorophenoxy)-2-fluorophenyl)-1H-pyrazolo[3,4-d]pyrimidin-1-yl)methyl)pyrrolidine-1-carbonyl)-4-methyl-4-(methylamino)pent-2-enenitrile] |
| 8.22 | CN(C)C(C)(C)C=C(C#N)C(=O)N1CCC[C@@H]1Cn1nc(-c2ccc(Oc3cccc(F)c3F)cc2F)c2c(N)ncnc21 [Cpd 106A, (R)-2-(2-((4-amino-3-(4-(2,3-difluorophenoxy)-2-fluorophenyl)-1H-pyrazolo[3,4-d]pyrimidin-1-yl)methyl)pyrrolidine-1-carbonyl)-4-(dimethylamino)-4-methylpent-2-enenitrile] |
| 8.82 | CN(C)C(C)(C)C=C(C#N)C(=O)N1CCC[C@H]1Cn1nc(-c2ccc(Oc3cccc(F)c3F)cc2F)c2c(N)ncnc21 [Cpd 106B, (S)-2-(2-((4-amino-3-(4-(2,3-difluorophenoxy)-2-fluorophenyl)-1H-pyrazolo[3,4-d]pyrimidin-1-yl)methyl)pyrrolidine-1-carbonyl)-4-(dimethylamino)-4-methylpent-2-enenitrile] |
| 9.15 | C[C@H](Cn1nc(-c2ccc(Oc3ccccc3)cc2F)c2c(N)ncnc21)NC(=O)C(C#N)=CC(C)(C)N [Cpd 188] |
| 7.49 | C[C@@H](Cn1nc(-c2ccc(Oc3ccccc3)cc2F)c2c(N)ncnc21)NC(=O)C(C#N)=CC1CC1 [Cpd 197B] |

same assay, conditions: read-out: IC50 (μm)

| SMILES | pIC50 |
| --- | --- |
| NC(=O)C(=CC1CC1)C(=O)N1CCC[C@@H](n2nc(-c3ccc(Oc4ccccc4)cc3)c3c(N)ncnc32)C1 [Cpd 30A, (R)-2-(3-(4-amino-3-(4-phenoxyphenyl)-1H-pyrazolo[3,4-d]pyrimidin-1-yl)piperidine-1-carbonyl)-3-cyclopropylacrylamide] | 8.77 |
